Assay results taken from the NIST ThermoML archive (doi:10.1016/j.jct.2007.11.009).

Assay: xn = mol fraction of the nth substance listed
Details: Liquid, Vibrating tube method, x2 = 0

c1ccccc1 [benzene] + CCCCCCCC
mass density [kg/m3]
Details | 298.15 K | 308.15 K | 318.15 K | 328.15 K
100 kPa | 873.5 | 862.9 | 852.3 | 841.5
2130 kPa | 875.1 | 864.7 | 854.2 | 843.6
4150 kPa | 876.7 | 866.4 | 856.1 | 845.6
6180 kPa | 878.4 | 868.2 | 857.9 | 847.5
8210 kPa | 879.9 | 869.9 | 859.7 | 849.5
10230 kPa | 881.5 | 871.6 | 861.5 | 851.3
11250 kPa | 882.3 | 872.4 | 862.4 | 852.3
12260 kPa | 883.1 | 873.2 | 863.2 | 853.2
14290 kPa | 884.6 | 874.8 | 865 | 855
16310 kPa | 886.1 | 876.4 | 866.6 | 856.8
18340 kPa | 887.6 | 878 | 868.3 | 858.6
20370 kPa | 889.1 | 879.5 | 869.9 | 860.3
22390 kPa | 890.5 | 881.1 | 871.6 | 862
24420 kPa | 892 | 882.6 | 873.2 | 863.7
26450 kPa | 893.4 | 884 | 874.7 | 865.3
28470 kPa | 894.7 | 885.5 | 876.2 | 866.9
29490 kPa | 895.4 | 886.2 | 877 | 867.8
30500 kPa | 896.1 | 886.9 | 877.8 | 868.6
32530 kPa | 897.5 | 888.4 | 879.2 | 870.1
34550 kPa | 898.8 | 889.7 | 880.7 | 871.7
36580 kPa | 900.1 | 891.1 | 882.1 | 873.1
38600 kPa | 901.4 | 892.5 | 883.6 | 874.7
39620 kPa | 902 | 893.2 | 884.3 | 875.4
